# Measurements published in US6589914B2, “Dihalopropene compounds, insecticidal/acaridcidal agents containing same, and intermediates for their production” (Sumitomo Chemical Company, Limited, priority 1994, dated 2003).
# Where two headings read alike, the source gives them in different places.
# How the values were obtained:
# Tetranychus urticae Koch = assay: Test against Tetranychus urticae Koch (spray and soil drench on potted bean); assay type: in vivo; conditions: active ingredient at 500 ppm, 15 ml sprayed per pot plus 2 ml soil drench, after 8 days
# Experimental: Ten female adults of Tetranychus urticae Koch per one leaf were allowed to parasitize to a potting bean at the primary leaf stage harvested for 7 days after seeding, and these pots were placed in a thermostated room at 25° C. After 6 days, a chemical solution containing an active ingredient at 500 ppm, which had been prepared by diluting with water an emulsifiable concentrate of the test compound obtained according to Formulation Example 1, was sprayed at a volume of 15 ml over each pot on a turntable. At the same time, 2 ml of the same solution was drenched in the soil. After 8 days, the degree of damage on the respective plants caused by Tetranychus urticae Koch was examined. The effects were determined according to the following criteria:
# −: Damage is scarcely observed.
# +: Damage is slightly observed.
# ++: Damage is observed at the same level as in the non-treated field.
# Spodoptera litura = assay: Insecticidal test against Spodoptera litura (treated artificial diet); assay type: in vivo; conditions: 144 h, active ingredient at 500 ppm, 2 ml in 13 g artificial diet, fourth-instar larvae, after 6 days
# Experimental: A 200-fold dilution containing an active ingredient at 500 ppm, which had been prepared by diluting with water an emulsifiable concentrate of the test compound obtained according to Formulation Example 1, was absorbed at a volume of 2 ml in 13 g of an artificial diet for Spodoptera litura, which had been prepared in a polyethylene cup having a diameter of 11 cm. Ten fourth-instar larvae of Spodoptera litura were set free in the cup. After 6 days, the survival of larvae was examined to determine the mortality. The test was conducted in duplicate.
# Plutella xylostella = assay: Insecticidal test against Plutella xylostella (spray on potted cabbage); assay type: in vivo; conditions: 96 h
# Experimental: A chemical solution containing an active ingredient at 50 ppm, which had been prepared by diluting an emulsifiable concentrate of the test compound obtained according to Formulation Example 1 with water containing spreading agent RINOU (Nihon Nouyaku K.K.) to a degree such that the spreading agent had been 1000-fold diluted, was sprayed at a volume 25 ml over each pot of a potting cabbage at the five leaf stage. The treated plants were air dried, on which ten third-instar larvae of Plutella xylostella were set free. After 4 days, the mortality was determined.
# Heliothis virescens = assay: Insecticidal test against Heliothis virescens (treated artificial diet); assay type: in vivo; conditions: 144 h
# Experimental: A dilution containing an active ingredient at 100 ppm, which had been prepared by diluting with water an emulsifiable concentrate of the test compound obtained according to Formulation Example 1, was incorporated at a volume of 0.2 ml in an artificial diet. A second-instar larva of H. virescens was given the diet and bred in a plastic vessel. Ten insects were used by each treatment. After 6 days, the mortality was determined.
# [1] = active ingredient at 50 ppm, 25 ml sprayed per pot of cabbage, third-instar larvae, after 4 days, read-out: mortality
# [2] = active ingredient at 100 ppm, 0.2 ml in artificial diet, second-instar larva, after 6 days, read-out: mortality
melting point,Structure (SMILES),degree of damage on the plants caused by Tetranychus urticae Koch (Tetranychus urticae Koch),further results
30.4 °C,"CN1C=CSC1CCOc1c(Cl)cc(OCC=C(Cl)Cl)cc1Cl (stereo not shown) [Compound 11, 3,5-Dichloro-4-(2-(3-methylthiazol-2-yl)ethoxy)-1-(3,3-dichloro-2-propenyloxy)benzene]",,
44.6 °C,"ClC(Cl)=CCOc1cc(Cl)c(OCc2cccs2)c(Cl)c1 [Compound 6, 3,5-Dichloro-4-(2-thienylmethyloxy)-1-(3,3-dichloro-2-propenyloxy)benzene]",,
74 °C,"ClC(Cl)=CCOc1cc(Cl)c(OCc2ccncc2)c(Cl)c1 [Compound 9, 3,5-Dichloro-4-(4-pyridylmethyloxy)-1-(3,3-dichloro-2-propenyloxy)benzene]",,
74.7 °C,"ClC(Cl)=CCOc1cc(Cl)c(OCCSc2ccncc2)c(Cl)c1 [Compound 19, 3,5-Dichloro-4-(2-(4-pyridylthio)ethoxy)-1-(3,3-dichloro-2-propenyloxy)benzene]",,
105.9 °C,"ClC(Cl)=CCOc1cc(Cl)c(OCc2cccnc2)c(Cl)c1 [Compound 8, 3,5-Dichloro-4-(3-pyridylmethyloxy)-1-(3,3-dichloro-2-propenyloxy)benzene]",,
48.3 °C,"ClC(Cl)=CCOc1cc(Cl)c(OCCCc2cccnc2)c(Cl)c1 [Compound 20, 3,5-Dichloro-4-(3-(3-pyridyl)propyloxy)-1-(3,3-dichloro-2-propenyloxy)benzene]",,
48.2 °C,"ClC(Cl)=CCOc1cc(Cl)c(OCc2ccccn2)c(Cl)c1 [Compound 5, 3,5-Dichloro-4-(2-pyridylmethyloxy)-1-(3,3-dichloro-2-propenyloxy)benzene]",,
46 °C,"ClC(Cl)=CCOc1cc(Cl)c(OCc2ccco2)c(Cl)c1 [Compound 7, 3,5-Dichloro-4-(2-furanylmethyloxy)-1-(3,3-dichloro-2-propenyloxy)benzene]",“−” or “+”,

# More lines, now with the values behind:
Structure (SMILES),melting point,degree of damage on the plants caused by Tetranychus urticae Koch (Tetranychus urticae Koch),further results
"ClC(Cl)=CCOc1cc(Cl)c(OCCCc2ccncc2)c(Cl)c1 [Compound 15, 3,5-Dichloro-4-(3-(4-pyridyl)propyloxy)-1-(3,3-dichloro-2-propenyloxy)benzene]",,“−” or “+”,
"ClC(Cl)=CCOc1cc(Cl)c(OCc2ccc(Cl)nc2Cl)c(Cl)c1 [Compound 2, 3,5-Dichloro-4-(2,6-dichloro-3-pyridylmethyloxy)-1-(3,3-dichloro-2-propenyloxy)benzene]",,,mortality at 500 ppm (Spodoptera litura): ≥ 80%
"FC(F)(F)c1ccc(OCCCOc2c(Cl)cc(OCC=C(Cl)Cl)cc2Cl)nc1 [Compound 36, 3,5-Dichloro-4-(3-(5-trifluoromethyl-2-pyridyloxy)propyloxy)-1-(3,3-dichloro-2-propenyloxy)benzene]",,,mortality at 50 ppm (Plutella xylostella): ≥ 80%; mortality at 100 ppm (Heliothis virescens): ≥ 80%
"ClC(Cl)=CCOc1cc(Cl)c(OCCc2cccs2)c(Cl)c1 [Compound 10, 3,5-Dichloro-4-(2-(2-thienyl)ethoxy)-1-(3,3-dichloro-2-propenyloxy)benzene]",,“−” or “+”,
"FC(F)(F)c1cnc(OCCCOc2c(Cl)cc(OCC=C(Cl)Cl)cc2Cl)c(Cl)c1 [Compound 37, 3,5-Dichloro-4-(3-(3-chloro-5-trifluoromethyl-2-pyridyloxy)propyloxy)-1-(3,3-dichloro-2-propenyloxy)benzene]",,,mortality at 50 ppm (Plutella xylostella; [1]): ≥ 80%
"FC(F)(F)c1ccc(OCCCCCOc2c(Cl)cc(OCC=C(Cl)Cl)cc2Cl)nc1 [Compound 43, 3,5-Dichloro-4-(5-(5-trifluoromethyl-2-pyridyloxy)pentyloxy)-1-(3,3-dichloro-2-propenyloxy)benzene]",,,mortality at 100 ppm (Heliothis virescens; [2]): ≥ 80%
"ClC(Cl)=CCOc1cc(Cl)c(NCCCOc2ccccn2)c(Cl)c1 [Compound 71, 3,5-Dichloro-4-(3-(2-pyridyloxy)propylamino)-1-(3,3-dichloro-2-propenyloxy)benzene]",76.2 °C,,
"ClC(Cl)=CCOc1cc(Cl)c(OCCc2ccsc2)c(Cl)c1 [Compound 14, 3,5-Dichloro-4-(2-(3-thienyl)ethoxy)-1-(3,3-dichloro-2-propenyloxy)benzene]",,,mortality at 500 ppm (Spodoptera litura): ≥ 80%
"ClC(Cl)=CCOc1cc(Cl)c(OCc2ccc(Cl)nc2)c(Cl)c1 [Compound 1, 3,5-Dichloro-4-(6-chloro-3-pyridylmethyloxy)-1-(3,3-dichloro-2-propenyloxy)benzene]",,“−” or “+”,mortality at 500 ppm (Spodoptera litura): ≥ 80%
"FC(F)(F)c1ccc(OCCCCOc2c(Cl)cc(OCC=C(Cl)Cl)cc2Cl)nc1 [Compound 42, 3,5-Dichloro-4-(4-(5-trifluoromethyl-2-pyridyloxy)butyloxy)-1-(3,3-dichloro-2-propenyloxy)benzene]",,,mortality at 50 ppm (Plutella xylostella; [1]): ≥ 80%; mortality at 100 ppm (Heliothis virescens; [2]): ≥ 80%
"ClC(Cl)=CCOc1cc(Cl)c(OCCCSc2ccccn2)c(Cl)c1 [Compound 30, 3,5-Dichloro-4-(3-(2-pyridylthio)propyloxy)-1-(3,3-dichloro-2-propenyloxy)benzene]",,“−” or “+”,
"ClC(Cl)=CCOc1cc(Cl)c(OCCCSc2nc3ccccc3[nH]2)c(Cl)c1 [Compound 39, 3,5-Dichloro-4-(3-(2-benzimidazolylthio)propyloxy)-1-(3,3-dichloro-2-propenyloxy)benzene]",120.7 °C,,
"ClC(Cl)=CCOc1cc(Cl)c(OCCc2nc3ccccc3o2)c(Cl)c1 [Compound 32, 3,5-Dichloro-4-(2-(2-benzoxazolyl)ethoxy)-1-(3,3-dichloro-2-propenyloxy)benzene]",61.2 °C,“−” or “+”,
"CC(C)(COc1c(Cl)cc(OCC=C(Cl)Cl)cc1Cl)Oc1cccc(Cl)n1 [Compound 33, 3,5-Dichloro-4-(2-methyl-2-(2-(6-chloro)pyridyloxy)propyloxy)-1-(3,3-dichloro-2-propenyloxy)benzene]",,“−” or “+”,
"O=C(OCCCOc1c(Cl)cc(OCC=C(Cl)Cl)cc1Cl)c1cnc2ccccc2c1 [Compound 28, 3-(2,6-Dichloro-4-(3,3-dichloro-2-propenyloxy)phenoxy)propyl 3-quinolinate]",92.3 °C,,
